The values below come from patent publication US20260062441A1, “TUMOR-SEEKING GLUCOSE-DENDRONS FOR THE DELIVERY OF CHEMOTHERAPEUTICS AND IMAGING AGENT TO CANCER CELLS” (THE BOARD OF TRUSTEES OF THE UNIVERSITY OF ILLINOIS, priority 2022, published 2026).

A short description of data set [1]: Log D7.4 measurements (octanol/PBS partition). Type of data set: physicochemical. The note with it: octanol/PBS pH 7.4. How it is done: Log D7.4 Measurements. Log D measurements were conducted in technical triplicate and 5 experimental replicates. Samples at a known concentration (n=3) were added to Eppendorf tubes containing PBS (pH=7.4, 500 μL) and octanol (500 μL). The Eppendorf tubes were each vortexed for 30 seconds and subsequently subjected to microcentrifuge for 1 minute. Then the PBS and octanol layers were pipetted into a clear 96-well plate. The absorbance values were taken using a SpectraMax M2 plate reader. The log of (dye absorbance in octanol/dye absorbance in PBS) was calculated and averaged across different concentrations to generate the log D7.4.

The nature of data set [2]: Photophysical characterization. To be noted: for ε / λabs / λem: 3:7 v/v MeCN:PBS (pH=7.4); for PABF: PA Brightness Factor; for Φ: relative to dimethoxy aza-BODIPY. Type of data set: physicochemical. On the procedure: Photophysical Characterization. Extinction coefficients and fluorescence quantum yields were acquired in experimental triplicates. Extinction coefficients were measured by performing serial dilutions of the compounds in 3:7 v/v MeCN:PBS (pH=7.4) within the linear range (absorbance values between 0.05-1.5). Reported fluorescence quantum yields are relative quantum yields compared to dimethoxy aza-BODIPY (Φ=0.36, chloroform). The compounds were titrated into acetonitrile or 3:7 MeCN/PBS (pH=7.4) such that their absorbance values were kept below 0.1 to prevent secondary absorbance events. The refractive index of 3:7 v/v MeCN:PBS (pH=7.4) was measured to be 1.343. Characterization of mvpCu and t-mvpCu were conducted in 1:1 v/v DMF:HEPES (50 mM, pH=7.4).

For data set [3] the following is noted: chloroform; cited from earlier work.
In data set [4] the test system is A549 human lung cancer cells. The data set is described as follows: Cellular uptake studies (epifluorescence imaging). The class given is cell-based. On the procedure:
Cell Culture. A549 lung cancer cells and 4T1 murine breast cancer cells were acquired from ATCC. A549 cells were cultured in Ham's F-12K Medium containing 10% FBS and 1% penicillin streptomycin solution, and 4T1 cells were cultured in RPMI-1640 Medium containing 10% FBS and 1% penicillin streptomycin solution. Cells were incubated at 37° C. with 5% CO2. Experiments were performed in 8-well plates (Nuc Lab-Tek Chambered Coverglass, Thermo Scientific) or 96-well plates (Nuclon Delta Surface Flat Bottom, Thermo Scientific).
Cellular Uptake Studies. 8-well borosilicate plates were prepared with poly-L-Lysine coating and seeded with 50,000 cells per well and incubated at 37° C. with 5% CO2 for 24 hours (˜60% confluent). Serum-free media containing mvGlu-AB2 (2 μM), 15 mM Glucose, mvGlu-AB2 (2 μM)+15 mM Glucose, L-mvGlu-AB2 (2 μM), dimethoxy aza-BODIPY (2 μM), or vehicle (DMSO) were prepared. Competition glucose wells were preincubated with 15 mM glucose in serum-free media for 30 minutes. […] The media was removed and replaced with PBS. Cells were imaged using an EVOS FL epifluorescence microscope with a Cy7 filter cube. Four experimental replicates and 3 technical replicates were taken.
Quantification of Cell Imaging Data. In FIJI (ImageJ), ROIs were drawn around representative cells and the integrated density (area×mean gray value) was measured. The total cell fluorescence was calculated by subtracting the integrated density of the cell by the background integrated fluorescence. Technical replicates (n=3) in each well were quantified as the average of 3 cells. Values are reported as the average (+SD) of […] (n=4). Colocalization Studies with mvGlu-AB2. 8-well borosilicate plates were prepared with poly-L-Lysine coating and seeded with 45,000 cells per well and incubated at 37° C. with 5% CO2 for 24 hours (˜60% confluent). Serum-free media containing mvGlu-AB2 (1 μM) was prepared. Cells were incubated for 30 minutes with mvGlu-AB2. The cells were washed 1× with PBS and incubated with the relevant organelle tracker according to the manufacturer recommended protocol. Following incubation with tracker, the cells were washed 1× with PBS. Cells were imaged using an EVOS FL epifluorescence microscope. Lysotracker® Green and Mitotracker® Green were imaged using a GFP filter cube, DAPI was imaged using a DAPI filter cube, and mvGlu-AB2 was image with a Cy7 filter cube. Four experimental replicates and 3 technical replicates were taken.

The next data set relates to A549 cells. The data set is described as follows: MTT cytotoxicity assay. The class given is cell-based, human. The note with it: A549, up to 15 μM, 6-hour incubation. How it is done: (§1) MTT Cytotoxicity Assay. A 96-well plate was seeded with 30,000 cells per well and incubated at 37° C. with 5% CO2 for 24-48 hours (˜70% confluent). The media was removed and replaced with fresh serum-free medium (200 μL) containing vehicle control (DMSO) or dye (4, 6, 10, or 15 μM). After 4 hours, the media was removed and replaced with a 20:1 mixture of PBS and (3-(4,5-dimethylthiazol-2-yl)-2,5-diphenyl-tetrazolium bromide (MTT, 5 mg/mL stock in PBS). The cells were incubated for 2 hours under the same conditions, and then the media was removed, replaced with DMSO (200 μL), and the absorbance of each well was recorded at 555 nm on a SpectraMax M2 plate reader. Percent viability was calculated relative to the vehicle control (n=8).

Another data set deals with 4T1 cells. Put plainly: MTT cytotoxicity assay. The class given is cell-based, murine. To be noted: 4T1, up to 15 μM, 6-hour incubation. On the procedure:
as §1

The test system of data set [5] is 4T1 orthotopic breast cancer. The data set is described as follows: In vivo fluorescence imaging of tumor-bearing mice. Details: species or system BALB/c mice. The note with it: for fluorescence signal enhancement of the tumor site relative to initial background scan: 1.2 mg/kg retroorbital. On the procedure: In Vivo Imaging. Before all imaging, hair on the bottom half of mice were removed via an electric razor and depilatory cream. In both FL and PA imaging, a background scan was taken of each mouse before injection. For PA imaging experiments, mice were allowed to equilibrate in the water tank for 10 min, and all scans were collected on H2O mode at 34° C.
Fluorescence Imaging with mvGlu-AB2 and mvGlu-AB3. 4T1 cells were trypsinized, neutralized with growth media, and counted on a Countess II FL Cell Counter (Invitrogen, Thermo Fisher Scientific). Cells were spun down, media was aspirated, and a solution was made in 1:1 serum-free RPMI media to VitroGel® hydrogel. Mice were injected in the mammary fat pad with 300,000 cells (50 μL) of the cell solution. Tumors grew for around 1.5-2 weeks and the mice were imaged once tumors reached 100 mm^3. Dyes (1.2 mg/kg) were dissolved in 0.9% saline (5% DMSO) and injected retroorbitally. Mice were imaged using the CRi Maestro In-Vivo Fluorescence Imaging System at timepoints=0, 6, 8, 12, 16, 24, and 48 hours. Excitation occurred at 680 nm, and light was collected from 690-850 nm (n=3).

Data set [6] concerns 4T1 orthotopic breast cancer. The data set is described as follows: In vivo PA imaging with mvGlu-AB2. The arrangement: species or system BALB/c mice. The note with it: 6 hr, spectral unmixing. On the procedure:
In Vivo Imaging. Before all imaging, hair on the bottom half of mice were removed via an electric razor and depilatory cream. In both FL and PA imaging, a background scan was taken of each mouse before injection. For PA imaging experiments, mice were allowed to equilibrate in the water tank for 10 min, and all scans were collected on H2O mode at 34° C. PA Imaging with mvGlu-AB2. 4T1 cells were trypsinized, neutralized with growth media, and counted on a Countess II FL Cell Counter (Invitrogen, Thermo Fisher Scientific). Cells were spun down, media was aspirated, and a solution was made in 1:1 serum-free RPMI media to Geltrex™ LDEV-Free, hESC-Qualified, Reduced Growth Factor Basement Membrane Matrix. Mice were injected in the mammary fat pad with 250,000 cells (50 μL) of the cell solution. Tumors grew for around 1.5-2 weeks and the mice were imaged once tumors reached 100 mm^3. mvGluAB-2 was reconstituted in 0.9% saline (5% DMSO) and injected retroorbitally. PA images were taken at timepoints=0 and 6 hours in 5 nm increments from 660-700 nm. Images were spectrally unmixed from hemoglobin, deoxyhemoglobin, and melanin (n=4).

In data set [1] (Table 2), `COc1ccc(C2=[N+]3C(=Nc4c(-c5ccccc5)cc(-c5ccc(OC)cc5)n4[B-]3(F)F)C(c3ccccc3)=C2)cc1` [AB-OMe2, reference compound] showed a logD7.4 of 2.51 ± 0.92. The compound further displayed a logD7.4 in data set [1] of 2.51±0.92. In data set [2], the “extinction coefficient ε” value amounted to 3000 M⁻¹ cm⁻¹. In addition, in data set [2] (Table 1b), the ε came to 3400 M/cm, the λabs turned out to be 689 nm, the λem came out at 710 nm and the PABF is given as 0.34 ×10^4. Moreover, in data set [2] (Table 1b), the Φ worked out at 0.014. Also, in data set [2] (Table 2), the ε was 3400 M/cm, the λabs stood at 689 nm, the λem is 710 nm and the PABF is recorded as 0.34 × 10^4. In data set [2] (Table 2), this compound displayed a Φ of 0.014. In addition, the “fluorescence quantum yield Φ of reference standard” value in data set [3] is on record as 0.36.

`COc1ccc(-c2cc(-c3ccccc3)c3n2[B-](OC)(OC)[N+]2=C(c4ccc(OCc5cn(C(COC6OC(CO)C(O)C(O)C6O)COC6OC(CO)C(O)C(O)C6O)nn5)cc4)C=C(c4ccccc4)C2=N3)cc1` (centres unmarked) [mvGlu-AB1]: in data set [1] (Table 2), the logD7.4 was 0.75 ± 0.02. In data set [1], the logD7.4 was 0.75±0.02. Moreover, in data set [2] (Table 1b), the ε was 18000 M/cm, the λabs was determined as 675 nm, the λem stood at 710 nm and the PABF is on record as 1.6 ×10^4. This compound also came in with a Φ in data set [2] (Table 1b) of 0.10. In addition, in data set [2] (Table 2), the ε turned out to be 18000 M/cm, the λabs was found to be 675 nm, the λem came to 710 nm and the PABF is listed as 1.6 × 10^4. In data set [2] (Table 2), this compound registered a Φ of 0.10.

As for `CO[B-]1(OC)n2c(-c3ccc(OCc4cn(C(COC5OC(CO)C(O)C(O)C5O)COC5OC(CO)C(O)C(O)C5O)nn4)cc3)cc(-c3ccccc3)c2N=C2C(c3ccccc3)=CC(c3ccc(OCc4cn(C(COC5OC(CO)C(O)C(O)C5O)COC5OC(CO)C(O)C(O)C5O)nn4)cc3)=[N+]21` (centres unmarked) [mvGlu-AB2], in data set [1] (Table 2), the logD7.4 is given as −1.12 ± 0.16. Further, the logD7.4 in data set [1] is −1.12±0.16. The “extinction coefficient ε” value in data set [2] was determined as 26000 M⁻¹ cm⁻¹. Moreover, in data set [2] (Table 1b), the ε is 26000 M/cm, the λabs was determined as 679 nm, the λem amounted to 710 nm and the PABF is 2.1 ×10^4. In data set [2] (Table 1b), the Φ worked out at 0.19. In data set [2] (Table 2), the ε was 26000 M/cm, the λabs stood at 679 nm, the λem came out at 710 nm and the PABF was 2.1 × 10^4. The compound further came in with a Φ in data set [2] (Table 2) of 0.19. In addition, in data set [2] (ratio to AB-OMe2), the “ε higher than AB-OMe2” value is reported as 8.7 fold. For the same compound, in data set [4] (A549), the “low dye concentration at which a clear fluorescent signature was apparent” value is 50 nM. The “brighter than cells treated with l-mvGlu isomer” value in data set [4] (A549, 2 μM) is listed as 3 fold. For the same compound, in data set [4] (A549, dye 2 μM, vs pre-incubation with glucose 15 mM), the “signal intensity higher when glucose was absent” value stood at 2 fold. The “fluorescence signal intensity brighter than AB-OMe2-treated cells” value in data set [4] (A549, imaged after 20 minutes) is reported as > 1000 fold. Moreover, the “cell viability (MTT)” value in the data set on A549 cells is reported as “no loss in cell viability”. The “cell viability (MTT)” value in the data set with 4T1 cells is given as “no loss in cell viability”. Moreover, the “fluorescence signal enhancement of the tumor site relative to initial background scan” value in data set [5] (after 8 hours) is given as ~2 fold. Further, the “PA signal difference of tumor prior to and after injection” value in data set [6] came to 4.1 fold.

For `COc1ccc(C2=[N+]3C(=Nc4c(-c5ccc(OCc6cn(C(COC7OC(CO)C(O)C(O)C7O)COC7OC(CO)C(O)C(O)C7O)nn6)cc5)cc(-c5ccc(OC)cc5)n4[B-]3(OC)OC)C(c3ccc(OCc4cn(C(COC5OC(CO)C(O)C(O)C5O)COC5OC(CO)C(O)C(O)C5O)nn4)cc3)=C2)cc1` (centres unmarked) [mvGlu-AB3], in data set [1] (Table 2), the logD7.4 is listed as −0.71 ± 0.11. For the same compound, in data set [1], the logD7.4 is −0.71±0.11. In data set [2] (Table 1b), the ε came out at 24000 M/cm, the λabs turned out to be 681 nm, the λem worked out at 712 nm and the PABF is listed as 1.7 ×10^4. The compound also yielded a Φ in data set [2] (Table 1b) of 0.31. For the same compound, in data set [2] (Table 2), the ε is 24000 M/cm, the λabs worked out at 681 nm, the λem turned out to be 712 nm and the PABF was 1.7 × 10^4. Further, the Φ in data set [2] (Table 2) is 0.31. Also, the “in vivo imaging results compared with mvGlu-AB2” value in data set [5] (FIGS. 17-18) was “comparable”. The “fluorescence signal enhancement of the tumor site relative to initial background scan” value in data set [5] (after 12 hours) is listed as ~2 fold.
